Assay: xn = mol fraction of the nth substance listed

CCS(=O)CC + CCC#N
viscosity [mPa·s], 101 kPa
Conditions	x1 = 0.0998	x1 = 0.2002	x1 = 0.2962	x1 = 0.3999	x1 = 0.4953	x1 = 0.6017	x1 = 0.6937	x1 = 0.7999	x1 = 0.8998
298.15 K	0.53	0.63	0.73	0.89	1.05	1.26	1.45	1.74	1.98
303.15 K	0.49	0.59	0.69	0.83	0.96	1.15	1.35	1.56	1.84
308.15 K	0.46	0.55	0.64	0.78	0.89	1.06	1.25	1.41	1.68
313.15 K	0.44	0.54	0.61	0.74	0.85	0.99	1.14	1.32	1.52
318.15 K	0.42	0.5	0.59	0.69	0.78	0.92	–	1.21	1.39
323.15 K	0.36	0.43	0.51	0.59	0.67	0.79	0.91	1.02	1.17

CCCCCN + CCC(=O)O
viscosity [mPa·s], 101.33 kPa
Conditions	293.15 K	298.15 K	298.5 K	303.15 K	308.15 K	313.15 K	318.15 K	323.15 K
x2 = 0.1	1.62	1.53	–	1.42	1.4	1.32	1.24	–
x2 = 0.2	1.97	1.86	–	1.74	1.69	1.6	1.51	–
x2 = 0.3	13.7	11.78	–	10.12	8.82	7.77	6.87	–
x2 = 0.4	85.81	–	71.98	56.82	46.99	39.47	33.6	28.82
x2 = 0.5	707.8	510.2	–	386	296.3	226.2	178.3	–
x2 = 0.6	368.1	274.6	–	210	164.6	130.8	103.8	–
x2 = 0.7	75.4	60.4	–	48.75	40.4	33.8	28.4	–

Reference: the CheMixHub viscosity set
